The subject of one data set is anesthetized rats. Description: Left ventricular contractility (LV dP/dtmax) in anesthetized rats. It counts as in vivo. Conditions: anesthetized rat. The method, then: The cardiovascular effects of FTY720 and BAF312 were tested in anesthetized rats (180–200 g). In brief, male Sprague Dawley rats (Charles River) were anesthetized with Inactin (110 mg/kg i.p.) and a tracheotomy performed. The femoral artery and veins were catheterized for measurement of mean arterial pressure and heart rate, collection of blood samples at 20-min intervals (0.2 mL/sample), and for compound infusion/hydration as previously described, [24]; blood samples were also withdrawn in vehicle-treated control rats. FTY720, infused as a hydrochloride salt (0.1, 0.3, 1.0 mg/kg/20-min free base equivalent solubilized in a 100% PEG-400 vehicle), or BAF312 (0.5, 1.5, 5.0 mg/kg/20-min solubilized in a 100% PEG-400 vehicle) were administered via three escalating 20-min infusions (0.011 mL/min) followed by a 1-hr post-treatment period. […] In a separate group of anesthetized rats in which left ventricular (LV) contractility was also recorded with a Millar pressure transducer introduced into the left ventricle, BAF312 was infused in the same dosing regimen as the studies described above (0.5, 1.5, 5.0 mg/kg/20-min solubilized in a 100% PEG-400 vehicle) and effects on LV dP/dtmax were recorded.

In another data set the target is T1, human S1P3 (Homo sapiens, UniProt Q99500).
T1 construct: host or cells: U2OS (Tango EDG3-bla)
T1 sequence (Q99500 whole entry): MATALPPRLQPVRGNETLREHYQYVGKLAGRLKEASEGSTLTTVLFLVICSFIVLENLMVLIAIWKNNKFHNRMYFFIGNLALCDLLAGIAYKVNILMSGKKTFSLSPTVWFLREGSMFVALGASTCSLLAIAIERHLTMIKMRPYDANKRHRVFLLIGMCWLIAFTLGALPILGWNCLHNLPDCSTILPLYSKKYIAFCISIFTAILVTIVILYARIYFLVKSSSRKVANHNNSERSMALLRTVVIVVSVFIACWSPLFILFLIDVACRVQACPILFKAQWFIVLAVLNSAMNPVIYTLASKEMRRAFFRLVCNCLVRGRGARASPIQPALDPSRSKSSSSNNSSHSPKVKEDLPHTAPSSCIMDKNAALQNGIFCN
Briefly: B arrestin recruitment assay, Tango EDG3-bla U2OS cells. In kind it is cell-based. Conditions: 18 hours agonist incubation. The procedure: (§1) Tango™ EDG1-bla U2OS cells (Human S1P1), Tango™ EDG3-bla U2OS cells (human S1P3), Tango™ EDG6-bla U2OS cells (human S1P4) and Tango™ EDG8-bla U2OS cells (human S1P5) cell lines were cultured and assayed according to manufacturers instructions with one modification; agonists incubated on the cells for 18 hours prior to addition of the GenBlazer substrate. Final DMSO concentration in the assay is 1%.

Another data set concerns the target T2, Human S1P1 (Homo sapiens, UniProt P21453).
T2 construct: host or cells: U2OS (Tango EDG1-bla)
Description: B arrestin recruitment assay, Tango EDG1-bla U2OS cells. Particulars: 18 hours agonist incubation. In kind it is cell-based. The method, then:
as §1

The target of a further data set is T3, human S1P5 (Homo sapiens, UniProt Q9H228).
T3 construct: host or cells: U2OS (Tango EDG8-bla)
T3 sequence (Q9H228 whole entry): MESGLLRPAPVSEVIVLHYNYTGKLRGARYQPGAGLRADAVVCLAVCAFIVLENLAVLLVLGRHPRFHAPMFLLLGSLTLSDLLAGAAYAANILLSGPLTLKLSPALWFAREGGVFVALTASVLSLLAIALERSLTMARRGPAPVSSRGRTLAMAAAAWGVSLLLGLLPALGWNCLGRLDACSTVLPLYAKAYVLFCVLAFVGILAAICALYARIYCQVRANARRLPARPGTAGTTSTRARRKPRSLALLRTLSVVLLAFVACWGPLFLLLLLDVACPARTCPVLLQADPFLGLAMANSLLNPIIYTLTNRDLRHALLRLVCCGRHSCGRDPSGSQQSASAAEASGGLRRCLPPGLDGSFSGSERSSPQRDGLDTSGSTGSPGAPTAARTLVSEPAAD
Description: B arrestin recruitment assay, Tango EDG8-bla U2OS cells. It counts as cell-based. Conditions: 18 hours agonist incubation. The method, then:
as §1

The nature of data set [1]: Heart tissue concentrations at the end of the repeat-dosing study. It counts as in vivo. Conditions: rat. The method, then:
In the repeat-dosing study with FTY720 (0.5, 1.5, and 5.0 mg/kg/d), plasma concentrations were also determined ( Table 3 ).

The next data set has as its system patients. Set-up: method as in PMID 20089954. Particulars: 1-yr trial; cited from earlier work.
Data set [2] has as its system rats. Also noted: method as in PMID 12352874. Conditions: FTY720 5 mg/kg/d; cited from earlier work.
Data set [3] has as its system rats. Description: Urinary sodium excretion in rats. In kind it is in vivo, rat. Conditions: subset of telemetry rats administered FTY720; unpublished preliminary observation.

Where only a bound is given, the exact number is not on record here.

T2 sequence (P21453 whole entry): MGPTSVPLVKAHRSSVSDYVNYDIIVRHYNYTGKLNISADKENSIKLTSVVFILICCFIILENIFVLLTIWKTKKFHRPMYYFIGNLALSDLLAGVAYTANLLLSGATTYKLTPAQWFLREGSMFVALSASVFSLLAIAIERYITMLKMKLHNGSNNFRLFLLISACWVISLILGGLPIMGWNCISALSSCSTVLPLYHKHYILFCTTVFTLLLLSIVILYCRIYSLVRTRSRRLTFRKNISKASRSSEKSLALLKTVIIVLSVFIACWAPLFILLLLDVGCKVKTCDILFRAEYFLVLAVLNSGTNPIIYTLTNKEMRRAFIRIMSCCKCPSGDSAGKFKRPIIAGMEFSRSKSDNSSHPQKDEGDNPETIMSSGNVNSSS

Consider `CCc1cc(/C(C)=N/OCc2ccc(C3CCCCC3)c(C(F)(F)F)c2)ccc1CN1CC(C(=O)O)C1` [BAF312], for which the “decrease in dP/dt” value in the data set with anesthetized rats (BAF312, 5.0 mg/kg dose group) was “not maintained”. The “LV dP/dtmax, below values in vehicle control animals” value with anesthetized rats (BAF312, end of the 1.5 mg/kg i.v. infusion) is listed as −5±4%. The EC50 (in general, the concentration giving half of the maximal effect) on human S1P3 is over 10000 nM; on Human S1P1, 2.5 nM; at human S1P5, 0.8 nM.

On to `CCCCCCCCc1ccc(CC[C@](N)(CO)COP(=O)(O)O)cc1` [FTY720-P], for which the “mean tissue concentration in heart” value in data set [1] (FTY720 0.5 mg/kg/d p.o.) worked out at 513 ng/g; in data set [1] (FTY720 1.5 mg/kg/d p.o.), 757 ng/g; in data set [1] (FTY720 5.0 mg/kg/d p.o.), 3799 ng/g.

In the case of `CCCCCCCCc1ccc(CCC(N)(CO)CO)cc1` [FTY720], the hypertension in patients in the data set on patients was 2–3 mmHg. Moreover, the “24-hr sodium excretion values and fractional excretion of sodium” value in the data set with rats [2] was “elicited reductions”. The “mean tissue concentration in heart” value is recorded as 379 ng/g in data set [1] (FTY720 0.5 mg/kg/d p.o.), 490 ng/g in data set [1] (FTY720 1.5 mg/kg/d p.o.) and 1848 ng/g in data set [1] (FTY720 5.0 mg/kg/d p.o.). Further, the urinary sodium excretion result in the data set with rats [3] is “reduction in urinary sodium excretion”.

The values above are taken from article PMC3532212 (PLoS ONE, 2012).
